The record followed here is patent US20210070735A1, “RIP1 INHIBITORY COMPOUNDS AND METHODS FOR MAKING AND USING THE SAME” (Rigel Pharmaceuticals, Inc., priority 2019, published 2021).

The target in one experiment is T1, human RIP1 (Homo sapiens, UniProt Q13546).
T1 construct: U937 and L929 cells were obtained from the American Type Culture Collection; host or cells: U937
T1 sequence (Q13546 1-671): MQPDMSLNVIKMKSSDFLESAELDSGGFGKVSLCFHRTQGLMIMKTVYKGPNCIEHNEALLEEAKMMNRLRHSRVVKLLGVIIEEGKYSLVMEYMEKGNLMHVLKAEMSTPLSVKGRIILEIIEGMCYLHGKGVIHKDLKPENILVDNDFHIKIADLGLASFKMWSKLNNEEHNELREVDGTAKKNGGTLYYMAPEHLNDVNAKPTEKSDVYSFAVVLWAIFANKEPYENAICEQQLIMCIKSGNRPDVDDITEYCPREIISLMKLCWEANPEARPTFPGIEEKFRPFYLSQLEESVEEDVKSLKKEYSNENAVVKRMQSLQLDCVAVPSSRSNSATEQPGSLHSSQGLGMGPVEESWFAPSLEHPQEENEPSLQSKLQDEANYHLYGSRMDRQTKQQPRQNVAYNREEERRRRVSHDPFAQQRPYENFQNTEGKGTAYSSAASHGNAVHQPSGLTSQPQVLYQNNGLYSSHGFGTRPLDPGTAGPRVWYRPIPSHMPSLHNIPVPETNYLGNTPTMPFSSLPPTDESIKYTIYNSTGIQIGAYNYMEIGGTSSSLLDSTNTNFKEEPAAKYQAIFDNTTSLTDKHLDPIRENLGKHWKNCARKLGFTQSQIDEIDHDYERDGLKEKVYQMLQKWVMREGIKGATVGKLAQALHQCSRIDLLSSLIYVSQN
Nature of the experiment: U937 cell necroptosis assay (TNFa + zVAD, CellTiter-Glo). The class given is cell-based. To be noted: U937 Zvad TNF CTG Recovery, U937 cells, TNFa 2 ng/mL + zVAD-fmk, 18 hours. The protocol:
(§1) In this example, U937 and L929 cells were exposed to compounds of the present disclosure and a cell necroptosis assay was conducted to evaluate the compounds' activity against human RIP1 and murine RIP1.
(§2) U937 and L929 cells were obtained from the American Type Culture Collection (Manassa, Va., USA). Both cells were maintained in logarithmic growth phase in complete RPMI 1640 media (Sigma, ST Louis, Mo., USA) supplemented with 10% fetal bovine serum (Sigma, ST Louis, Mo., USA) at 37° C. with 5% CO2. For necroptosis assay, L929 cells were plated for 18 h in 100 µL/well medium at 10K cells/well in Costar 96-well black clear-bottom plates (Fisher Scientific, Hampton, N.H., USA); U937 cells were plated on the day of the assay in 50 µL/well medium containing 60 uM zVAD-fmk (Lonza, Basel, Switzerland) at 50K cells/well. Medium from L929 cells were removed from the 96-well plates and replaced with 50 µL/well new medium containing 40 uM zVAD-fmk. Each compound of the present disclosure evaluated in this example was serially diluted in DMSO from 2.5 mM in 4-fold dilutions, and then diluted 1:125 in complete medium. 50 µL/well 2× of the compound was then added to the cells in the plates. The cells were pre-incubated with the compound for 1 hour at 37° C. with 5% CO2 and before addition of 10 µL/well 11×TNFa (Peprotech, Rocky Hill, N.J., USA) to give a final concentration of 2 ng/mL for TNFa. The relative amount of necroptosis cells was determined by luminescent using a Wallac Victor2 Luminometer (PerkinElmer, Waltham, Mass., USA) and a CellTiter-Glo® Luminescent Cell Viability Reagent Assay (Promega, Madison, Wis., USA) added per manufacturer instructions after 18 hours of TNFa stimulation at 37° C. with 5% CO2.Results from this example are summarized in Table 2. This example establishes that embodiments of the compounds described herein have unexpectedly potent activity against human RIP1 and murine RIP1, which allows their assessment in in vivo mouse models of disease.
(ATP-based viability assays read luminescence as a measure of living cells.)

Another experiment deals with T2, RIPK1 (Homo sapiens, UniProt Q13546).
T2 sequence (Q13546 1-671): T1 sequence (Q13546 1-671)
Nature of the experiment: RIPK1 ADP-Glo biochemical kinase assay. To be noted: 30 min at 30° C. Here is the method: The final reaction volume was 5.0 μl.
Adding 5 μl of ADP-Glo™ terminated the reaction.
A general note: ADP-Glo turns the ADP formed in a reaction into a luminescent signal.

In a further experiment the target is T3, murine RIP1 (Mus musculus, UniProt Q60855).
T3 construct: U937 and L929 cells were obtained from the American Type Culture Collection; host or cells: L929
T3 sequence (Q60855 1-656): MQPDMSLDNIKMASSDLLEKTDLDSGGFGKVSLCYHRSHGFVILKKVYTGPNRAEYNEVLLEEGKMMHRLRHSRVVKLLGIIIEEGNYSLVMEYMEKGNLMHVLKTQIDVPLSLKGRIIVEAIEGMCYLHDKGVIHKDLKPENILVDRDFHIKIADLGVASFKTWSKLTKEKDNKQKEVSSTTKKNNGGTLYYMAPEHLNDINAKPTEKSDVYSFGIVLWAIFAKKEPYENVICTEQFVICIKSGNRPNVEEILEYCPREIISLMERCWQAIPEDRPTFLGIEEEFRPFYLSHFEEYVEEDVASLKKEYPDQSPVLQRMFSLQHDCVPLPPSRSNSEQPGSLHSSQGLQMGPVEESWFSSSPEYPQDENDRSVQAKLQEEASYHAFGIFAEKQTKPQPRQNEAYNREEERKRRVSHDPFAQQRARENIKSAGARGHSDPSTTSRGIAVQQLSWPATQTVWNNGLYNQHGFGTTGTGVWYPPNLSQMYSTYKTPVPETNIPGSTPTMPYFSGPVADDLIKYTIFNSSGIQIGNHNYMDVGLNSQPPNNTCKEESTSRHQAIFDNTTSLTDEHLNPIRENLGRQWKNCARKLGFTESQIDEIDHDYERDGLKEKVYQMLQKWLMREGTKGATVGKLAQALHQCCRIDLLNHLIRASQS
Nature of the experiment: L929 cell necroptosis assay (TNFa + zVAD, CellTiter-Glo). The class given is cell-based. The protocol:
as §1, §2

As a reminder, the IC50 is the midpoint of a concentration-inhibition curve. For the compound `CN1C(=O)C(NC(=O)c2ncn(Cc3c(Cl)cccc3Cl)n2)CCc2ccc(CN3CCN(c4ccncc4)CC3)cc21` (racemic) [Compound I-3, (±)-1-(2,6-Dichlorobenzyl)-N-(1-methyl-2-oxo-8-((4-(pyridin-4-yl)piperazin-1-yl)methyl)-2,3,4,5-tetrahydro-1H-benzo[b]azepin-3-yl)-1H-1,2,4-triazole-3-carboxamide], the values for the IC50 on human RIP1, on RIPK1 and at murine RIP1 were 5.8 nM, 30.7 nM and 2530 nM, respectively.

With `CN1C(=O)C(NC(=O)c2n[nH]c(Cc3ccccc3)n2)CCc2ccc(CN3CCN(c4ccncc4)CC3)cc21` (racemic) [Compound I-4, (±)-5-Benzyl-N-(1-methyl-2-oxo-8-((4-(pyridin-4-yl)piperazin-1-yl)methyl)-2,3,4,5-tetrahydro-1H-benzo[b]azepin-3-yl)-1H-1,2,4-triazole-3-carboxamide], the IC50 at human RIP1 worked out at 53.9 nM; at RIPK1, 525 nM.

Take `O=C(NC1CCc2ccc(CN3CCN(c4ccncc4)CC3)cc2NC1=O)c1ncn(Cc2c(Cl)cccc2Cl)n1` (racemic) [Compound I-5, (±)-1-(2,6-Dichlorobenzyl)-N-(2-oxo-8-((4-(pyridin-4-yl)piperazin-1-yl)methyl)-2,3,4,5-tetrahydro-1H-benzo[b]azepin-3-yl)-1H-1,2,4-triazole-3-carboxamide]: the IC50 on human RIP1 came to 16.4 nM; on RIPK1 it was 65.6 nM.

On to `O=C(NC1CCc2ccc(CN3CCN(c4ccncc4)CC3)cc2NC1=O)c1n[nH]c(Cc2ccccc2)n1` (racemic) [Compound I-6, (±)-5-Benzyl-N-(2-oxo-8-((4-(pyridin-4-yl)piperazin-1-yl)methyl)-2,3,4,5-tetrahydro-1H-benzo[b]azepin-3-yl)-1H-1,2,4-triazole-3-carboxamide], for which the figures for the IC50 at human RIP1 and on RIPK1 were 1460 nM and 330 nM, respectively.

With `O=C(NC1CCc2ccc(CN3CCN(c4ccncc4)CC3)cc2NC1=O)c1n[nH]c(Cc2ccccc2)n1` (racemic) [Compound I-7, (±)-5-Benzyl-N-(2-oxo-8-((4-(pyridin-4-yl)piperazin-1-yl)methyl)-2,3,4,5-tetrahydro-1H-benzo[b]azepin-3-yl)-1H-1,2,4-triazole-3-carboxamide], the IC50 came to 2650 nM at human RIP1 and 806 nM at RIPK1.

On to `CN1C(=O)C(NC(=O)c2n[nH]c(Cc3ccccc3)n2)CCc2ccc(CN3CCn4ncnc4C3)cc21` (racemic) [Compound I-8, (±)-5-Benzyl-N-(8-((5,6-dihydro-[1,2,4]triazolo[1,5-a]pyrazin-7(8H)-yl)methyl)-1-methyl-2-oxo-2,3,4,5-tetrahydro-1H-benzo[b]azepin-3-yl)-1H-1,2,4-triazole-3-carboxamide], for which the IC50 turned out to be 9.3 nM on human RIP1, 378 nM on RIPK1 and 5440 nM at murine RIP1.

For `O=C(NC1CCc2ccc(N3CC4(CCOCC4)C3)cc2NC1=O)c1n[nH]c(Cc2ccccc2)n1` (racemic) [Compound I-9, (±)-5-Benzyl-N-(2-oxo-8-(7-oxa-2-azaspiro[3.5]nonan-2-yl)-2,3,4,5-tetrahydro-1H-benzo[b]azepin-3-yl)-1H-1,2,4-triazole-3-carboxamide], the IC50 at human RIP1 turned out to be 13.1 nM; at RIPK1 it was 414 nM; at murine RIP1, 30800 nM.

Regarding `CN1C(=O)C(NC(=O)c2n[nH]c(Cc3ccccc3)n2)CCc2ccc(N3CCN4CCC3CC4)cc21` (racemic) [Compound I-11, (±)-N-(8-(1,4-Diazabicyclo[3.2.2]nonan-4-yl)-1-methyl-2-oxo-2,3,4,5-tetrahydro-1H-benzo[b]azepin-3-yl)-5-benzyl-1H-1,2,4-triazole-3-carboxamide], the values for the IC50 on human RIP1 and at RIPK1 were 1080 nM and 808 nM, respectively.

`CN1C(=O)C(NC(=O)c2n[nH]c(Cc3ccccc3)n2)CCc2ccc(N3CC4(CCCCC4)C3)cc21` (racemic) [Compound I-12, (±)-5-Benzyl-N-(1-methyl-2-oxo-8-(2-azaspiro[3.5]nonan-2-yl)-2,3,4,5-tetrahydro-1H-benzo[b]azepin-3-yl)-1H-1,2,4-triazole-3-carboxamide]: the figures for the IC50 at human RIP1, against RIPK1 and on murine RIP1 were 5.2 nM, 444 nM and 43.2 nM, respectively.

`CN1C(=O)C(NC(=O)c2n[nH]c(Cc3ccccc3)n2)CCc2ccc(N3CCC4(CCOCC4)CC3)cc21` (racemic) [Compound I-13, (±)-5-Benzyl-N-(1-methyl-2-oxo-8-(3-oxa-9-azaspiro[5.5]undecan-9-yl)-2,3,4,5-tetrahydro-1H-benzo[b]azepin-3-yl)-1H-1,2,4-triazole-3-carboxamide]: the figures for the IC50 on human RIP1, at RIPK1 and on murine RIP1 were 2.1 nM, 373 nM and 94.9 nM, respectively.

On to `[2H]C([2H])([2H])N1C(=O)C(NC(=O)c2n[nH]c(Cc3ccccc3)n2)CCc2ccc(C#CC(C)(C)O)cc21` (racemic) [Compound I-14, (±)-5-Benzyl-N-(8-(3-hydroxy-3-methylbut-1-yn-1-yl)-1-(methyl-d)-2-oxo-2,3,4,5-tetrahydro-1H-benzo[b]azepin-3-yl)-1H-1,2,4-triazole-3-carboxamide], for which the half-inhibitory concentration (IC50) on human RIP1 was determined as 7.3 nM; on RIPK1 it was 129 nM; on murine RIP1 it was 43.3 nM.

As for `O=C(NC1CCc2ccc(CN3CCN(c4ccncc4)CC3)cc2NC1=O)c1cc(Oc2ccccc2)ccn1` (racemic) [Compound I-26, (±)-N-(2-Oxo-8-((4-(pyridin-4-yl)piperazin-1-yl)methyl)-2,3,4,5-tetrahydro-1H-benzo[b]azepin-3-yl)-4-phenoxypicolinamide], the IC50 on human RIP1 was found to be 3890 nM; against RIPK1, 661 nM.

Take `CN1C(=O)C(NC(=O)c2nccc(-c3ccccc3)n2)CCc2ccc(CN3CCN(c4ccncc4)CC3)cc21` (racemic) [Compound I-38, (±)-N-(1-Methyl-2-oxo-8-((4-(pyridin-4-yl)piperazin-1-yl)methyl)-2,3,4,5-tetrahydro-1H-benzo[b]azepin-3-yl)-4-phenylpyrimidine-2-carboxamide]: the IC50 came out at 6360 nM at human RIP1 and 4460 nM at RIPK1.

For `CN1C(=O)C(NC(=O)c2nccc(-c3ccccc3)n2)CCc2ccc(CN3CCn4ncnc4C3)cc21` (racemic) [Compound I-39, (±)-N-(8-((5,6-dihydro-[1,2,4]triazolo[1,5-a]pyrazin-7(8H)-yl)methyl)-1-methyl-2-oxo-2,3,4,5-tetrahydro-1H-benzo[b]azepin-3-yl)-4-phenylpyrimidine-2-carboxamide], the IC50 on human RIP1 came to 216 nM.
